One data set concerns the target T1, thymidylate synthase (Homo sapiens, UniProt P04818).
T1 construct: from tissue; host or cells: colorectal liver metastasis tissue from human patients
The data set is described as follows: Modelle-001 Phase II clinical trial: TS inhibition in colorectal liver metastases (LC-MS/MS). The format is in vivo. The following applies: iv, i.v. bolus, with 500 mg/m2 5-FU, mean. The source says: The difference in a clinical setting in human patients between leucovorin and arfolitixorin has been analyzed by Taflin et al. in the Modelle 001 Phase 2 clinical study (TS-inhibition in Colorectal Liver Metastases Comparing Arfolitixorin and Calciumfolinate), the primary objective of which is to compare the TS-inhibtion capacity of the combination Arfolitixorin/5-FU in contrast to Calciumfolinate/5-FU in tumour, adjacent liver parenchyma and plasma in patients with liver metastases from colorectal cancer (Study Details | Modelle 001, TS-inhibition in Colorectal Liver Metastases Comparing Arfolitixorin and Calciumfolinate | ClinicalTrials.gov) (Taflin 2023).
(§1) The effectiveness of arfolitixorin vs. leucovorin in Thymidylate Synthase inhibition and in achieving high levels of [6R] 5,10-methylenetetrahydrofolate in metastatic tissue was investigated in the Modelle-001 Phase II clinical trial named "A Single-blinded, Randomized Phase II study investigating the effects of two doses of Arfolitixorin compared to Calcium folinate together with 5-fluorouracil on thymidylate synthase in tumour and adjacent hepatic tissue for patients with liver metastases from colorectal cancer". Link: Study Details I Modelle 001, TS-inhibition in Colorectal Liver Metastases Comparing Arfolitixorin and Calciumfolinate I Clinical-Trials.gov.
(§2) Aim: The Modelle-001 trial was designed to explore how a single intravenous bolus injection of Arfo as compared to LV in the form of calcium folinate, together with 5-FU affects the inhibition of TS and, further, to investigate how different forms and doses of folates affect folate concentration and polyglutamation in metastatic liver tissue.
Patients and Methods: Thirty adult patients with biopsy-verified colorectal cancer and liver metastases indicated for surgical removal were included at two Swedish University Hospitals. Both synchronous and metachronous liver metastases were accepted and most patients had received preoperative chemotherapy. […] Folate levels and TS inhibition were determined by LC-MS/MS.

The conditions of data set [1]: cited from earlier work.
The conditions of data set [2]: cited from earlier work. This is another data set of the same source.
The nature of data set [3]: Modelle-001 Phase II clinical trial: folate concentration and polyglutamation in metastatic liver tissue (LC-MS/MS). The class given is in vivo, human. The settings on record: compared to LV60; for ratio of poly/monoglutamated folates: after 5-FU administration.
From the text: as §1, §2
Patients and Methods: Thirty adult patients with biopsy-verified colorectal cancer and liver metastases indicated for surgical removal were included at two Swedish University Hospitals. Both synchronous and metachronous liver metastases were accepted and most patients had received preoperative chemotherapy. The first six patients received a reduced 5-FU dosage (250 mg/m2), and an independent safety committee gave permission to escalate to full dosage. Twenty-four patients were randomized to receive 500 mg/m2 5-FU either in combination with 60 mg/m2 LV (LV60, n = 12), 30 mg/m2 Arfo (A30, n = 6) or 120 mg/m2 Arfo (A120, n = 6) as a bolus regimen (a slow i.v. injection for three minutes). Metastatic tissue was collected 60 minutes after folate administration, then 5-FU was given. After a 60-minute break, metastatic tissue was again collected. Folate levels and TS inhibition were determined by LC-MS/MS.

A further data set relates to solid tumors. The data set is described as follows: Phase I/IIa study ISO-CC-005: tumour response to arfolitixorin doublet regimens (ARFIRI/ARFOX). The following applies: 120 mg/m^2 arfolitixorin and 5-FU with either irinotecan or oxaliplatin (ARFIRI/ARFOX). The class given is in vivo, human. The procedure:
Arfolitixorin has been in development for a number of years and has been studied in several clinical studies.
The completion of the study was announced in January 2020. In total, 105 patients were included in the study. […] These patients had been treated with the "doublet" regimens comprising 120 mg/m^2 arfolitixorin and 5-fluorouracil (5-FU) with either irinotecan or oxaliplatin (ARFIRI/ARFOX). Out of the 31 patients, 17 were treated with an ARFOX regimen.

A short description of data set [4]: [6R]-MTHF levels after arfolitixorin versus comparable leucovorin treatment. The format is in vivo. The following applies: fold higher than leucovorin. The source says:
Leucovorin and I-leucovorin, both currently approved for treatment of gastrointestinal and other cancers, need to be metabolically activated to [6R]-MTHF to potentiate the effect of 5-FU. This dependency on cellular activation provides a hurdle for reaching sufficient levels of the active [6R]-MTHF. […] Secondly, the enzymatic activation is genetically regulated^16,18, and is therefore associated with variability between individuals and conditions. Arfolitoxirin is believed to be efficacious in a larger proportion of patients with less inter- and intra-individual variability. These differences may potentially turn out to be of significant importance for increased clinical efficacy in 5-FU based cancer treatment.

Data set [5] deals with advanced metastatic colorectal adenocarcinoma. The following applies: FOLFIRINOX (± cetuximab) supplemented with pyridoxine in high doses, cited from earlier work.

The text below walks through data of patent EP4534088A1, “ARFOLITIXORIN FOR USE IN VITAMIN B6-ENHANCED, 5-FLUOROURACIL-BASED CHEMOTHERAPY OF CARCINOMAS” (priority 2023, dated 2025).

T1 sequence (P04818 2-313 limits assumed): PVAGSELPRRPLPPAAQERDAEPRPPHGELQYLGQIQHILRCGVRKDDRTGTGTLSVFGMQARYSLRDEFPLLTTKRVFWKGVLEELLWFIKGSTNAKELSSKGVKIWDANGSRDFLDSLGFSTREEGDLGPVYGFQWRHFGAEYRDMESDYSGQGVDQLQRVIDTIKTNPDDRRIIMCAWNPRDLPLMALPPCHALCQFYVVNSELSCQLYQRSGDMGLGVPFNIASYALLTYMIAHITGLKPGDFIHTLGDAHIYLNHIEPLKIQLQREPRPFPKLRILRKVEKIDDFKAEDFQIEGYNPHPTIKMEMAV

Consider `Nc1nc2c(c(=O)[nH]1)N(C=O)C(CNc1ccc(C(=O)N[C@@H](CCC(=O)O)C(=O)O)cc1)CN2` (stereo partly shown) [Leucovorin, 5-formyl tetrahydrofolic acid, reference compound], for which the inhibition at 60 mg/m2 at thymidylate synthase (60 mg/m2 Leucovorin (LV60)) was 25.4%.

Consider `Cc1ncc(CO)c(CO)c1O.Cl` [Pyridoxine hydrochloride], for which the “volume of water in which one gram dissolves” value in data set [1] is 5 mL. Also, the stability in air entry in data set [2] (air) is given as “stable in air”. Also, the stability to sunlight result in data set [2] (sunlight) was “slowly affected by sunlight”.

For the compound `Nc1nc2c(c(=O)[nH]1)N1CN(c3ccc(C(=O)N[C@@H](CCC(=O)O)C(=O)O)cc3)C[C@H]1CN2` [arfolitixorin, [6R]-5,10-methylenetetrahydrofolate], the “ratio of poly/monoglutamated folates” value in data set [3] (30 mg/m2 (A30), p = 0.045) is “higher”; in data set [3] (120 mg/m2 (A120), p = 0.0049) it was “higher”. Further, the “5,10-methylenetetrahydrofolate (CH2THF) concentrations in metastases” value is “higher” in data set [3] (30 mg/m2 (A30), after 5-FU treatment, p = 0.031); “higher” in data set [3] (30 mg/m2 (A30), before 5-FU treatment, p = 0.037); “higher” in data set [3] (120 mg/m2 (A120), after 5-FU treatment, p = 0.0023); “higher” in data set [3] (120 mg/m2 (A120), before 5-FU treatment, p = 0.0003). The “best overall response rate (ORR)” value in the data set with solid tumors worked out at 55%. The “[6R]-MTHF levels relative to comparable treatment with leucovorin” value in data set [4] is reported as 3-4 times. The inhibition at 30 mg/m2 on thymidylate synthase (30 mg/m2 arfolitixorin (A30)) turned out to be 54.2%. In addition, the inhibition at 120 mg/m2 at thymidylate synthase (120 mg/m2 arfolitixorin (A120)) was 83.8%.

In the case of `Cc1ncc(CO)c(CO)c1O` [pyridoxine], the “toxicity associated with the pyridoxine-modified protocols” value in data set [5] is “of the same magnitude as expected for the standard protocols”. Also, in data set [5] (five patients, no controls), the Antitumor activity result is listed as “high for several patients”.

The inhibition is the drop in the measured response relative to a control, in per cent.
